Measured values published in PMC6193938, “Characterization of a novel AICARFT inhibitor which potently elevates ZMP and has anti-tumor activity in murine models” (Scientific Reports, 2018).
“Also recorded” adds a separate entry of the source. Like-named read-outs stand apart in the source and are kept apart here.

Columns and labels:
JNK3 = target: T1, JNK3 (Homo sapiens, UniProt P53779); assay: CEREP protein kinase assay; format: biochemical
T1 construct: purchased CEREP Panlabs (Eurofins)

RON = target: T2, RON (Homo sapiens, UniProt Q04912); assay: CEREP protein kinase assay; format: biochemical
T2 construct: purchased CEREP Panlabs (Eurofins)

PKAa = target: T3, PKAa (Homo sapiens, UniProt P17612); assay: CEREP protein kinase assay; format: biochemical
T3 construct: purchased CEREP Panlabs (Eurofins)

LCK = target: T4, LCK (Homo sapiens, UniProt P06239); assay: CEREP protein kinase assay; format: biochemical
T4 construct: purchased CEREP Panlabs (Eurofins)

FLT4 = target: T5, FLT4 (Homo sapiens, UniProt P35916); assay: CEREP protein kinase assay; format: biochemical
T5 construct: purchased CEREP Panlabs (Eurofins)

MDA-MB-231 = assay: In vitro proliferation assay, Cell Titer Glo; format: cell-based; settings: Homo sapiens
Description: Cell Titer Glo measures ATP, thus the IC50s represent both the effect on purine production and cell proliferation, which are related. […] Folates are actively taken up in cells by reduced folate carrier (SLC19A1), proton-coupled folate transporter (SLC46A1), and the FOLR1 folate receptor[17]. Once inside the cell, folates are trapped by polyglutamation catalyzed by folylpolyglutamate synthetase (FPGS). […] Gene expression data for ATIC, GART, APRT, HPRT, FOLR1, SLC19A1, SLC46A1 & FPGS are shown in Fig. 2, since these genes were anticipated to predict sensitivity. […] The MDA-MB-231 cell line is reduced folate carrier (SLC19A1) negative due to epigenetic silencing.
Cells were cultured using recommended culture conditions unless noted otherwise (Supplemental Table 3). Cells were plated, dosed with compound and incubated at 37 °C for approximately 2 doubling times as determined for each cell line. Cell Titer Glo (Promega) assay was used to measure proliferation according to manufacturer’s recommendations by measuring luminescence with Flexstation3 (Molecular Devices) with 500 ms integration time. […] The % response was fit to a four-parameter logistic equation using ACTIVITYBASE 4.0 to determine the absolute IC50 values.

A9 cells = assay: MS detection of ZMP and dUMP in cultured cells; format: cell-based, murine
Experimental: To mimic human plasma levels, low folate media is traditionally used in which the folate comes only from the defined fetal bovine serum. […] Because LSN3213128 would be dosed in mice on normal diet, cell line screening was performed under standard tissue culture conditions to identify cell lines sensitive to treatment under high folate conditions. In order to compare tissue culture values with tumor levels, an average 4 pL cell volume[36] was used to calculate cellular ZMP concentrations. In MDA-MB-231[…] cells using regular RPMI, the peak intracellular ZMP levels are about 770 μM while in the salvage deficient A9 cells ZMP is 6,500 μM. […] It is not surprising that in vivo in mice on standard chow where folate plasma levels are >10-fold lower than tissue culture that tumor ZMP levels are also lower. […] ZMP was detected in cultured cells via mass spec analysis. Cells were plated in 96-well plates at 25,000 cells per well in 100 μL with either high or low folate RPMI media and incubated overnight at 37 °C with 5% CO2. Cells were treated with inhibitor compounds for 16 hours, 0.5% DMSO final concentration. Growth media was decanted and cells were lysed for 10 min at room temperature with 50 μL per well of 1x Sure Fire Lysis buffer (Perkin Elmer, SureFire kit component). […] Samples were sealed, vortexed for 5 minutes, and placed in the refrigerator for at least 30 minutes. The samples were centrifuged at 4 °C for 10 minutes at 16,600 g. 75 μL of the aqueous layer were transferred to a clean 96-well plate and seal prior to analysis. The LC-MS method utilizes a Shimadzu Prominence 20 A HPLC system connected to an AB Sciex 5500TM or an AB Sciex 6500TM triple quadrupole mass spectrometer. […] […] dUMP were detected using positive ion TurboIonSpray® multiple reaction monitoring mode and the data were processed with AB Sciex MultiQuantTM. Back-calculated ZMP concentrations were fit to a four-parameter logistic equation using ACTIVITYBASE 4.0 to determine EC50 values relative to the maximum observed metabolite levels.

IRK = target: T6, IRK (Homo sapiens, UniProt P06213); assay: CEREP protein kinase assay; format: biochemical
T6 construct: purchased CEREP Panlabs (Eurofins)

IKKb = target: T7, IKKb (Homo sapiens, UniProt O14920); assay: CEREP protein kinase assay; format: biochemical
T7 construct: purchased CEREP Panlabs (Eurofins)
T7 sequence (O14920 1-756): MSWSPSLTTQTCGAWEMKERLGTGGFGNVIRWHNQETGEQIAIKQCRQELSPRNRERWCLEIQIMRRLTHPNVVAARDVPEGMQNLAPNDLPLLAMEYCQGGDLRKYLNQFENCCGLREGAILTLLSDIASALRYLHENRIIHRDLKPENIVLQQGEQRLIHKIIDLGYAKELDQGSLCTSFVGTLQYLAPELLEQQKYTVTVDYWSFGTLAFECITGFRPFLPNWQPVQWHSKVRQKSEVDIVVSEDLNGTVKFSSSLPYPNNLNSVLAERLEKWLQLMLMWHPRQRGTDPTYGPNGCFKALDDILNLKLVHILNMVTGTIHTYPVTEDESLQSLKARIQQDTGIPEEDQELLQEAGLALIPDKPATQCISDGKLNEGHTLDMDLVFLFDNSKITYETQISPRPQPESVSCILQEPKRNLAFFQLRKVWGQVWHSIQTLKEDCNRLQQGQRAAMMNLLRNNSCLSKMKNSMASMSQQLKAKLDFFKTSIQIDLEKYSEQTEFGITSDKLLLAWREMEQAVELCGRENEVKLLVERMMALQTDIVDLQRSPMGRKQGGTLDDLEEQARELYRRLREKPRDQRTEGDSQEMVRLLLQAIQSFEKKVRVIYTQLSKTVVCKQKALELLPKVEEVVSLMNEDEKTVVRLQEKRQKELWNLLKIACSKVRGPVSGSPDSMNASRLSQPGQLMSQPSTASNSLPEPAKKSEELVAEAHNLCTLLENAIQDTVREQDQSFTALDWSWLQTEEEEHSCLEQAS

T4 sequence (P06239 whole entry): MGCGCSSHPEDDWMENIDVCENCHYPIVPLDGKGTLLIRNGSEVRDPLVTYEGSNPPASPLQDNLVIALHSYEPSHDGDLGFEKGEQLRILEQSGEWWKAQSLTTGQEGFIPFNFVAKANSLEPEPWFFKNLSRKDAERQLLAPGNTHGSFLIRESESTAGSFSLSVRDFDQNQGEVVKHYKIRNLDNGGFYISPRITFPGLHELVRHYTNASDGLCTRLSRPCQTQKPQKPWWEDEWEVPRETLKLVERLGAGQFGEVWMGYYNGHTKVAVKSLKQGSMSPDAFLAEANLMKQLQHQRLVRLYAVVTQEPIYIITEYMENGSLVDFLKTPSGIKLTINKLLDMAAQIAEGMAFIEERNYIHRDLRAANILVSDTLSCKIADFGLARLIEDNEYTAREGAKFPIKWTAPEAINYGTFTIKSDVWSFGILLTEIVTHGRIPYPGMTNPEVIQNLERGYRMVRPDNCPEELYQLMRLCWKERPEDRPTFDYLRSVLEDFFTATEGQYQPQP
T6 sequence (P06213 28-1382): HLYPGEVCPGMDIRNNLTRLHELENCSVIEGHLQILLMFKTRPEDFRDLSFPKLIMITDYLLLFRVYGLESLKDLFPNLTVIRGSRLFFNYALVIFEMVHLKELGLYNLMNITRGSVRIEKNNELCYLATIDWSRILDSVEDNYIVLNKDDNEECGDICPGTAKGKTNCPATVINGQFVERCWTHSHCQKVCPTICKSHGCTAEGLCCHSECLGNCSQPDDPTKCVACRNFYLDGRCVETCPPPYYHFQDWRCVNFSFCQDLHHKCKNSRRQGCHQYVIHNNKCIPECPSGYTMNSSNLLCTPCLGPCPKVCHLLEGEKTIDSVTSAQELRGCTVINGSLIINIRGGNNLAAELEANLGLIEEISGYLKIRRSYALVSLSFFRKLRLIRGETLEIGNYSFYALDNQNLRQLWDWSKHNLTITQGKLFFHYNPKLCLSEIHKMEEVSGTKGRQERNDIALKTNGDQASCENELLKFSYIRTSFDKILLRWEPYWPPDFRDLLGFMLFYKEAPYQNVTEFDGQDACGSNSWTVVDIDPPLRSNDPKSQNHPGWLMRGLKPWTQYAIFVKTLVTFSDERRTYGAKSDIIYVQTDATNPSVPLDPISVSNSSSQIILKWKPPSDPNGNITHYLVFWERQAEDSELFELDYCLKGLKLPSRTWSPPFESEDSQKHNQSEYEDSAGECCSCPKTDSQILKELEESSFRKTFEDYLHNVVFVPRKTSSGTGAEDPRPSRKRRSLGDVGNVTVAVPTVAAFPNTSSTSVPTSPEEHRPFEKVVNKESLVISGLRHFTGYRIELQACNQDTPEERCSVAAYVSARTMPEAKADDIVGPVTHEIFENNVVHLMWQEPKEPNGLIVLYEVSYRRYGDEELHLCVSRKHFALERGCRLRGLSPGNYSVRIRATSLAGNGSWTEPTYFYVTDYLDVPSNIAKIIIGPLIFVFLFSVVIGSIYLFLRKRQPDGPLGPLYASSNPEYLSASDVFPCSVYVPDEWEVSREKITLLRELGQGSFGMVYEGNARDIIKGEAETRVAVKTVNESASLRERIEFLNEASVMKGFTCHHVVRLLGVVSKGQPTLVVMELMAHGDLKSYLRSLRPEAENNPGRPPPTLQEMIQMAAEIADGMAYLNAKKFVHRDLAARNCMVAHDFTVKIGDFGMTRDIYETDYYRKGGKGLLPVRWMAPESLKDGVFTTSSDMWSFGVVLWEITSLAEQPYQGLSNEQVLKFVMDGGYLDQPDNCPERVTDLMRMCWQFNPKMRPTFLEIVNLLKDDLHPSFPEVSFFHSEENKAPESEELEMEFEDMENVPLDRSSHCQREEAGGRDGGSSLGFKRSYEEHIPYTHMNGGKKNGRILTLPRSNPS
T5 sequence (P35916 25-1363): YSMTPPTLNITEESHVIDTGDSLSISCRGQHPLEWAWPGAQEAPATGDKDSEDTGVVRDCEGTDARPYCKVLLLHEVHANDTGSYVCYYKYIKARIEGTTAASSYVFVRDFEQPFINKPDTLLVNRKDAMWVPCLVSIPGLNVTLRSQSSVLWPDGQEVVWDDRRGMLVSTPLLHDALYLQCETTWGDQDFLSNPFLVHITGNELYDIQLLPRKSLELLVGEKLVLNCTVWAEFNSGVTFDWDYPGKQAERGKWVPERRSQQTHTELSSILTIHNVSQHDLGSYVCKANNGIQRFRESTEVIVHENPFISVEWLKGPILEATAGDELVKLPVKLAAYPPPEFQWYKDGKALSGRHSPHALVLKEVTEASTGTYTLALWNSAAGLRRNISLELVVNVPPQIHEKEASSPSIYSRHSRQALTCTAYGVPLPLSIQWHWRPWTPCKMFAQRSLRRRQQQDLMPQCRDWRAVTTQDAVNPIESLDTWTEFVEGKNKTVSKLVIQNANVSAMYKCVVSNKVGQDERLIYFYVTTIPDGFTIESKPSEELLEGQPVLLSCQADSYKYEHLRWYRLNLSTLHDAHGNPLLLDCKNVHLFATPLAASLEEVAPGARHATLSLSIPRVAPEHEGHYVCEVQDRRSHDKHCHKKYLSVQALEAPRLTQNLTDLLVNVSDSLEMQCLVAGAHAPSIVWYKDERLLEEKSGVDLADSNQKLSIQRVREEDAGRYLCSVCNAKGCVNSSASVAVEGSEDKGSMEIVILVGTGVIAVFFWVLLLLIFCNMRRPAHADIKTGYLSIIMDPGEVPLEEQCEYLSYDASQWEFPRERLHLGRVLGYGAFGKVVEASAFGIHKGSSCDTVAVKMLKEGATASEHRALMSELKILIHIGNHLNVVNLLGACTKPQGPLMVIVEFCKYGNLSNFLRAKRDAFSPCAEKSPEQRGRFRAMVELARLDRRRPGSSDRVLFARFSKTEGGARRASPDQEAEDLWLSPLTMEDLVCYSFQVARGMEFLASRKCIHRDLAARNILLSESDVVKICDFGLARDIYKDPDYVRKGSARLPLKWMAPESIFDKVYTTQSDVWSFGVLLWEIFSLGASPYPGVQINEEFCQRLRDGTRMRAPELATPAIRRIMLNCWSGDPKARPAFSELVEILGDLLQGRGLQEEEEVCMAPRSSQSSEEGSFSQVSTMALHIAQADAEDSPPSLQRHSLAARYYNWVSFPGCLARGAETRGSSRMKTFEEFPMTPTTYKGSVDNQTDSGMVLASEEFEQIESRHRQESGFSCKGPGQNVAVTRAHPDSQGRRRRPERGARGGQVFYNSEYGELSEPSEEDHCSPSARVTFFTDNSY
T2 sequence (Q04912 25-1400): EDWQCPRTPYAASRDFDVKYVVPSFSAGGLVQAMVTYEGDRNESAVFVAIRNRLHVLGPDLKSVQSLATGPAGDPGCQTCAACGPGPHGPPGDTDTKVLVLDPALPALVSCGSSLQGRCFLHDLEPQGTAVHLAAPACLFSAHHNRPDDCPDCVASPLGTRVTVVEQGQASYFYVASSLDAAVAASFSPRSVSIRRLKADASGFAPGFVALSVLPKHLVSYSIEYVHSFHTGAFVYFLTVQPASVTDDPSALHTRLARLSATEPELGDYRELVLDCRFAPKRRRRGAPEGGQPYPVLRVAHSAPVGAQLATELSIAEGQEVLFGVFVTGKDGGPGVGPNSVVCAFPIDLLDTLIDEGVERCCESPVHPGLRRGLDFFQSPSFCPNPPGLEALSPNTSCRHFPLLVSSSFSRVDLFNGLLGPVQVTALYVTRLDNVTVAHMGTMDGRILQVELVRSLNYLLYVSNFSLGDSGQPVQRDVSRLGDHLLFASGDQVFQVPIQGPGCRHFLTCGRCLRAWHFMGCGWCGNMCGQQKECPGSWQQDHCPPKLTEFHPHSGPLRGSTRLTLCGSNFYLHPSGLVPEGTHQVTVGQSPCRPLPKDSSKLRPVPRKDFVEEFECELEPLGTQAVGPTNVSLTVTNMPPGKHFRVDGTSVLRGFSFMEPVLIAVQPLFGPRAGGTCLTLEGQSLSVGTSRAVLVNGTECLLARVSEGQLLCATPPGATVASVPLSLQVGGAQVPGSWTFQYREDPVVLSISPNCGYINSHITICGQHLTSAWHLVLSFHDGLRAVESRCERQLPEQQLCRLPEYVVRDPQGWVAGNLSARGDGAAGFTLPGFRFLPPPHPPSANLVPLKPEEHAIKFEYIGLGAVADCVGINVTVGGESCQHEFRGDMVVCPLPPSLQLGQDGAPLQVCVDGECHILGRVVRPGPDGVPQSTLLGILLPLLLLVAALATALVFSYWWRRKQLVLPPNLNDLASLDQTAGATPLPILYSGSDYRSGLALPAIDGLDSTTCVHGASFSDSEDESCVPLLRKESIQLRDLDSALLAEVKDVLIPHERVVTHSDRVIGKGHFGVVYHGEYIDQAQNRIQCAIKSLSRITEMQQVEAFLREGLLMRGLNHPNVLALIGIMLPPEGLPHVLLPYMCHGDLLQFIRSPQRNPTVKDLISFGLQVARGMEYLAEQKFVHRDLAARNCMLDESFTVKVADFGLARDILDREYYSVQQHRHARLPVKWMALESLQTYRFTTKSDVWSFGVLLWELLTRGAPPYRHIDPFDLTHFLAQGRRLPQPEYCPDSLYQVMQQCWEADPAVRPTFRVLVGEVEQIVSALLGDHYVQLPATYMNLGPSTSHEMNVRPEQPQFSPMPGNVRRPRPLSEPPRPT
T1 sequence (P53779 whole entry): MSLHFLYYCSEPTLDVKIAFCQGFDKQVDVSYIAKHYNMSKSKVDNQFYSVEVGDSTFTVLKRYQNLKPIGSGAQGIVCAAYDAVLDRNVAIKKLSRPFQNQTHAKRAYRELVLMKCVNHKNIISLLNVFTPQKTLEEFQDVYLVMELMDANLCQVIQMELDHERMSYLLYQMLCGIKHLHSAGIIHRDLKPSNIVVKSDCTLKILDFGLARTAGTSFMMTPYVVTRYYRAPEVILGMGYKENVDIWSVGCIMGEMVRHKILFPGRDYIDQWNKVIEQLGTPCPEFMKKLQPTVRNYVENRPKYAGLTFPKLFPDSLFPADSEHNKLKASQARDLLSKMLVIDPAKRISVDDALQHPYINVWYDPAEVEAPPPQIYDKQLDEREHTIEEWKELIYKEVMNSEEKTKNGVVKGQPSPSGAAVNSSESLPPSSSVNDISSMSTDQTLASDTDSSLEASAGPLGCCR

Structure (SMILES): O=c1[nH]ccc2cc(F)c(NS(=O)(=O)c3ccc(N4CC[C@@H](O)C4)s3)cc12 [LSN3213128, N-(6-Fluoro-1-oxo-1,2-dihydroisoquinolin-7-yl)-5-[(3R)-3-hydroxypyrrolidin-1-yl]thiophene-2-sulfonamide]
- inhibition at 0.2 µM (JNK3; @ 0.2 uM): -0.752%
- inhibition at 2 µM (JNK3; @ 2 uM): 19.2%
- inhibition at 20 µM (JNK3; @ 20 uM): 76.2%
- inhibition at 0.2 µM (RON; @ 0.2 uM): -17.2%
- inhibition at 2 µM (RON; @ 2 uM): -11.8%
- inhibition at 20 µM (RON; @ 20 uM): 33.9%
- inhibition at 0.2 µM (PKAa; @ 0.2 uM): -7.44%
- inhibition at 2 µM (PKAa; @ 2 uM): -0.808%
- inhibition at 20 µM (PKAa; @ 20 uM): 3.8%
- inhibition at 0.2 µM (LCK; @ 0.2 uM): -24.6%
- inhibition at 2 µM (LCK; @ 2 uM): -4.9%
- inhibition at 20 µM (LCK; @ 20 uM): 2.61%
- inhibition at 0.2 µM (FLT4; @ 0.2 uM): -9.28%
- inhibition at 2 µM (FLT4; @ 2 uM): 6.53%
- inhibition at 20 µM (FLT4; @ 20 uM): 70.5%
- IC50 (MDA-MB-231; MDA-MB-231, breast, read-out: ABS_IC50_VALUE): 20 nM
- IC50 (MDA-MB-231; MDA-MB-231, Cell Titer Glo, two doubling times, read-out: IC50 by CTG): 7.6 nM
- dUMP levels in tissue culture (A9 cells; A9): No changes; also recorded: does not alter
- peak intracellular ZMP levels (A9 cells; A9 cells, calculated with 4 pL cell volume): 6,500 μM
- inhibition at 0.2 µM (IRK; @ 0.2 uM): -0.8%
- inhibition at 2 µM (IRK; @ 2 uM): 10.6%
- inhibition at 20 µM (IRK; @ 20 uM): 12.9%
- inhibition at 0.2 µM (IKKb; @ 0.2 uM): -6.4%
- inhibition at 2 µM (IKKb; @ 2 uM): 0.126%
- inhibition at 20 µM (IKKb; @ 20 uM): 4.91%
